The text below walks through data of US9796742B2, “Kinase inhibitors” (Respivert Limited, priority 2012, dated 2017).

In one assay the test system is PBMCs. Description: LPS-induced TNFα/IL-8 release in PBMC cells. Format: cell-based. The conditions noted are these: Homo sapiens, LPS-stimulated PBMCs. How it is done: Peripheral blood mononuclear cells (PBMCs) from healthy subjects are separated from whole blood using a density gradient (Lymphoprep, Axis-Shield Healthcare). The PBMCs are seeded in 96 well plates and treated with compounds at the desired concentration for 2 hours before addition of 1 ng/mL LPS (Escherichia Coli 0111:B4 from Sigma Aldrich) for 24 hours under normal tissue culture conditions (37° C., 5% CO2). The supernatant is harvested for determination of IL-8 and TNFα concentrations by sandwich ELISA (Duo-set, R&D systems) and read on the fluorescence microplate reader (Varioskan® Flash, ThermoFisher Scientific). The concentration at 50% inhibition (IC50) of IL-8 and TNFα production is calculated from the dose response curve.

The next assay has as its target c-Src (Homo sapiens (Human), UniProt P12931). Description: c-Src enzyme inhibition (FRET, Z-LYTE). It counts as biochemical. Here is the method:
(§1) The enzyme inhibitory activities of compounds disclosed herein are determined by FRET using synthetic peptides labelled with both donor and acceptor fluorophores (Z-LYTE, Invitrogen Ltd., Paisley, UK).
(§2) The inhibitory activities of compounds of the invention against c-Src and Syk enzymes (Invitrogen), are evaluated in a similar fashion to that described hereinabove. The relevant enzyme (3000 ng/mL or 2000 ng/mL respectively, 2.5 μL) is incubated with the test compound (either 4 μg/mL, 0.4 μg/mL, 0.04 μg/mL, or 0.004 μg/mL, 2.5 μL each) for 2 hr at RT. The FRET peptides (8 μM. 2.5 μL), and appropriate ATP solutions (2.5 μL, 800 μM for c-Src, and 60 μM ATP for Syk) are then added to the enzymes/compound mixtures and incubated for 1 hr. Development reagent (protease, 5 μL) is added for 1 hr prior to detection in a fluorescence microplate reader (Varioskan® Flash, ThermoFisher Scientific).
(§3) In all cases, the site-specific protease cleaves non-phosphorylated peptide only and eliminates the FRET signal. Phosphorylation levels of each reaction are calculated using the ratio of coumarin emission (donor) over fluorescein emission (acceptor), for which high ratios indicate high phosphorylation and low ratios indicate low phosphorylation levels. The percentage inhibition of each reaction is calculated relative to non-inhibited control and the 50% inhibitory concentration (IC50 value) is then calculated from the concentration-response curve.

The next assay concerns the target Syk (Homo sapiens (Human), UniProt P43405). Description: Syk enzyme inhibition (FRET, Z-LYTE). Format: biochemical. Here is the method: as §1, §2, §3
The target of another assay is GSK3α (Homo sapiens (Human), UniProt P49840). Description: GSK 3α enzyme inhibition (FRET, Z-LYTE; Method 2). It counts as biochemical. Here is the method: as §1
The inhibitory activities of compounds of the invention against the GSK 3α enzyme isoform (Invitrogen), are evaluated by determining the level of activation/phosphorylation of the target peptide. The GSK3-α protein (500 ng/mL, 2.5 μL) is mixed with the test compound (2.5 μL at either 4 μg/mL, 0.4 μg/mL, 0.04 μg/mL, or 0.004 μg/mL) for 2 hr at RT. The FRET peptide (8 μM, 2.5 μL), which is a phosphorylation target for GSK3α, and ATP (40 μM, 2.5 μL) are then added to the enzyme/compound mixture and the resulting mixture incubated for 1 hr. Development reagent (protease, 5 μL) is added for 1 hr prior to detection in a fluorescence microplate reader (Varioskan® Flash, ThermoFisher Scientific).
as §3
This method follows the same steps as Method 1 above, but utilises a shorter period of mixing of the test compound (105 minutes instead of 2 hours) with the GSK3-α protein.

For a further assay, the target named is p38 MAPKα (Homo sapiens (Human), UniProt Q16539). The experiment in a line: p38 MAPKα enzyme inhibition (FRET, Z-LYTE; Method 2). It counts as biochemical. How it is done: as §1
The inhibitory activities of test compounds against the p38 MAPKα isoform (MAPK14: Invitrogen), are evaluated indirectly by determining the level of activation/phosphorylation of the down-stream molecule, MAPKAP-K2. The p38 MAPKα protein (80 ng/mL, 2.5 μL) is mixed with the test compound (2.5 μL of either 4 μg/mL, 0.4 μg/mL, 0.04 μg/mL or 0.004 μg/mL) for 2 hr at RT. […] The mixture is incubated for 1 hr at RT. Development reagent (protease, 5 μL) is added for 1 hr prior to detection in a fluorescence microplate reader (Varioskan® Flash, ThermoFisher Scientific).
Method 2 This method follows the same steps as Method 1 above, but utilises a higher concentration of the p38 MAPKα protein (2.5 μL of 200 ng/mL protein instead of 2.5 μL of 80 ng/mL protein) for mixing with the test compound.
as §3

[1] abbreviates: IL-8, read-out: IC50 Values for Inhibition of Cytokine Release, PBMCs IL-8.
Where [2] appears, read: TNFα, read-out: IC50 Values for Inhibition of Cytokine Release, PBMCs TNFα.

pIC50: −log10 of the molar value. Where two headings read alike, the source gives them in different places.

GSK3α, sequence (P49840 whole entry, canonical isoform): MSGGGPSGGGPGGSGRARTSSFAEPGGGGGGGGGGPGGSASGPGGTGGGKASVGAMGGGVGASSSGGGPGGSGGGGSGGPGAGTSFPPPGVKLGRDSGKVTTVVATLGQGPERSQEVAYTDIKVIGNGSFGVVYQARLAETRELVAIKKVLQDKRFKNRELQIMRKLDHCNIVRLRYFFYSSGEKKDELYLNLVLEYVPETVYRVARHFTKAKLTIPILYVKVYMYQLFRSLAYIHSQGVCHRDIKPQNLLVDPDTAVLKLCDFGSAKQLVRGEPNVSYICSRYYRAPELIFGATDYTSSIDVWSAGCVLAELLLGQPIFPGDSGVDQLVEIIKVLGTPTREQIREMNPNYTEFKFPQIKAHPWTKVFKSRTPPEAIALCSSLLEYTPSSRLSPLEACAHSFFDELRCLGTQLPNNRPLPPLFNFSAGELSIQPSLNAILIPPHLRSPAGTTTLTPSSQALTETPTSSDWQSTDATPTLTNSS
p38 MAPKα, sequence (Q16539 whole entry, canonical isoform): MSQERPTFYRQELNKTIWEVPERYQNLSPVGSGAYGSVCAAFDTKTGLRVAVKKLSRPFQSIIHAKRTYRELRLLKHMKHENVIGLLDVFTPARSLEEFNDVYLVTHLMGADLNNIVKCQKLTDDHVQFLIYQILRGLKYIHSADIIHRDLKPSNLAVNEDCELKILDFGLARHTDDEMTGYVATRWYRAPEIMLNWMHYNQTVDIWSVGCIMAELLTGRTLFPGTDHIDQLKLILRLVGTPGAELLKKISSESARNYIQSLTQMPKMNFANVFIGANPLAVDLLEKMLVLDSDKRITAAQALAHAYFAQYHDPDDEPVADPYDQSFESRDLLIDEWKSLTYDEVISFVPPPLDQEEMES
c-Src, sequence (P12931 whole entry, looked up): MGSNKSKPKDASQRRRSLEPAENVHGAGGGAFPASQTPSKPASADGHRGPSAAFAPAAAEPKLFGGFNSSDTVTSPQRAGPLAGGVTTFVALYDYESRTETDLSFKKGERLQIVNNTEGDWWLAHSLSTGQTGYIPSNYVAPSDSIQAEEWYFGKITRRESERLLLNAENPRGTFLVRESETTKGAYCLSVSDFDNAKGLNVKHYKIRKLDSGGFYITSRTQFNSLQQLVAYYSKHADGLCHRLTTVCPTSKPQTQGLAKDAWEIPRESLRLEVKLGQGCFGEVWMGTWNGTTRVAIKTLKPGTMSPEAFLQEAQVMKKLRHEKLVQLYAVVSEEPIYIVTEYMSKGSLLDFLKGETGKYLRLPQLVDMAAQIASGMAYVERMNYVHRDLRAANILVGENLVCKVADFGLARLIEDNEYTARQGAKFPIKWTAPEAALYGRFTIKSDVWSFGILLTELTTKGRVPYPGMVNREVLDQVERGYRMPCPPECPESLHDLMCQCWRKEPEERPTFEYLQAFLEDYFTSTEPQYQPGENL

One may read the pIC50 as the negative decadic logarithm of the IC50, by convention in mol/L. With `CC(C)(C)c1cc(NC(=O)Nc2ccc(Oc3ccnc(Sc4ccccc4)n3)c3ccccc23)n(-c2ccc(P(C)(C)=O)cc2)n1` [Example 29, 1-(3-(tert-Butyl)-1-(4-(dimethylphosphoryl)phenyl)-1H-pyrazol-5-yl)-3-(4-((2-(phenylthio)-pyrimidin-4-yl)oxy)naphthalen-1-yl)urea], the pIC50 in the assay on PBMCs (setting [1]) is 6.82; on c-Src, less than 6.00; against Syk, less than 6.00; against GSK3α, less than 5.00; against p38 MAPKα it was 6.83.
Turning to `CC(C)(C)c1cc(NC(=O)Nc2ccc(Oc3ccnc(Nc4ccc(S(F)(F)(F)(F)F)cc4)n3)c3ccccc23)n(-c2ccc(P(C)(C)=O)cc2)n1` [Example 28, 1-(3-(tert-Butyl)-1-(4-(dimethylphosphoryl)phenyl)-1H-pyrazol-5-yl)-3-(4-((2-((4-(Pentafluorothio)phenyl)amino)pyrimidin-4-yl)oxy)naphthalen-1-yl)urea], the pIC50 in the assay with PBMCs (setting [1]) is 6.67; against c-Src, 6.43; against Syk, 6.05; at GSK3α, less than 5.00; on p38 MAPKα, less than 6.00.
For `CC(C)(C)c1cc(NC(=O)Nc2ccc(Oc3ccnc(Nc4cccc(OCCN5CCOCC5)c4)n3)c3ccccc23)n(-c2cccc(CP(C)(C)=O)c2)n1` [Example 34, 1-(3-(tert-Butyl)-1-(3-((dimethylphosphoryl)methyl)phenyl)-1H-pyrazol-5-yl)-3-(4-((2-((3-(2-morpholinoethoxy)phenyl)amino)pyrimidin-4-yl)oxy)naphthalen-1-yl)urea], the pIC50 in the assay on PBMCs (setting [1]) was 8.96; against GSK3α, 6.49.
With `CC(C)(C)c1cc(NC(=O)Nc2ccc(Oc3ccnc(Nc4ccc5c(c4)NC(=O)C5)n3)c3ccccc23)n(-c2ccc(P(C)(C)=O)cc2)n1` [Example 14, 1-(3-(tert-Butyl)-1-(4-(dimethylphosphoryl)phenyl)-1H-pyrazol-5-yl)-3-(4-((2-((2-oxoindolin-6-yl)amino)pyrimidin-4-yl)oxy)naphthalen-1-yl)urea], the values for the pIC50 in the assay with PBMCs (setting [1]), with PBMCs (setting [2]) and against GSK3α were 7.88, 8.40 and 6.53, respectively.
As to `CC(C)(C)c1cc(NC(=O)Nc2ccc(Oc3ccnc(Nc4ccc5c(c4)NC(=O)C5)n3)c3ccccc23)n(-c2cccc(CP(C)(C)=O)c2)n1` [Example 33, 1-(3-(tert-Butyl)-1-(3-((dimethylphosphoryl)methyl)phenyl)-1H-pyrazol-5-yl)-3-(4-((2-((2-oxoindolin-6-yl)amino)pyrimidin-4-yl)oxy)naphthalen-1-yl)urea], the pIC50 with PBMCs (setting [1]) is 8.62; on GSK3α it was 6.49.
With `CC(C)(C)c1cc(NC(=O)Nc2ccc(Oc3ccnc(Nc4ccc5onc(N)c5c4)n3)c3ccccc23)n(-c2ccc(P(C)(C)=O)cc2)n1` [Example 20, 1-(4-((2-((3-Aminobenzo[d]isoxazol-5-yl)amino)pyrimidin-4-yl)oxy)naphthalen-1-yl)-3-(3-(tert-butyl)-1-(4-(dimethylphosphoryl)phenyl)-1H-pyrazol-5-yl)urea], the pIC50 in the assay on PBMCs (setting [1]) was 8.05; at GSK3α, 7.17.
For `COc1cc(Nc2nccc(Oc3ccc(NC(=O)Nc4cc(C(C)(C)C)nn4-c4cccc(CP(C)(C)=O)c4)c4ccccc34)n2)cc(C(=O)NCCN2CCOCC2)c1` [Example 47, 3-((4-((4-(3-(3-(tert-Butyl)-1-(3-((dimethylphosphoryl)methyl)phenyl)-1H-pyrazol-5-yl)ureido)naphthalen-1-yl)oxy)pyrimidin-2-yl)amino)-5-methoxy-N-(2-morpholinoethyl)-benzamide], in that order: 9.10 and 6.39.
For `CC(C)(C)c1cc(NC(=O)Nc2ccc(Oc3ccnc(Nc4ccccc4)n3)c3ccccc23)n(-c2ccc(P(C)(=O)O)cc2)n1` [Example 19, (4-(3-(tert-Butyl)-5-(3-(4-((2-(phenylamino)pyrimidin-4-yl)oxy)naphthalen-1-yl)ureido)-1H-pyrazol-1-yl)phenyl)(methyl)phosphinic acid], the pIC50 in the assay on PBMCs (setting [1]) is 6.39; at GSK3α it was 7.12.
As for `CC(C)(C)c1cc(NC(=O)Nc2ccc(Oc3ccnc(Nc4ccc5c(c4)NC(=O)C5)n3)c3ccccc23)n(-c2cccc(P(C)(C)=O)c2)n1` [Example 11], the results for the pIC50 in the assay on PBMCs (setting [1]), with PBMCs (setting [2]) and on GSK3α were 7.79, 8.57 and 6.69, respectively.
Regarding `CC(C)c1cc(NC(=O)Nc2ccc(Oc3ccnc(Nc4cc(OCCN5CCOCC5)cc(S(C)(=O)=O)c4)n3)c3ccccc23)n(-c2cccc(CP(C)(C)=O)c2)n1` [Example 53, 1-(1-(3-((Dimethylphosphoryl)methyl)phenyl)-3-isopropyl-1H-pyrazol-5-yl)-3-(4-((2-((3-(methylsulfonyl)-5-(2-morpholinoethoxy)phenyl)amino)pyrimidin-4-yl)oxy)naphthalen-1-yl)urea], the figures for the pIC50 in the assay on PBMCs (setting [1]) and against GSK3α were 8.70 and 6.73, respectively.
For `CC(C)(C)c1cc(NC(=O)Nc2ccc(Oc3ccnc(Nc4ccc(P(C)(C)=O)cc4)n3)c3ccccc23)n(-c2ccc(P(C)(C)=O)cc2)n1` [Example 25, 1-(3-(tert-Butyl)-1-(4-(dimethylphosphoryl)phenyl)-1H-pyrazol-5-yl)-3-(4-((2-((4-(dimethyl-phosphoryl)phenyl)amino)pyrimidin-4-yl)oxy)naphthalen-1-yl)urea], in that order: 7.84 and 6.79.
Consider `CCOP(C)(=O)c1ccc(-n2nc(C(C)(C)C)cc2NC(=O)Nc2ccc(Oc3ccnc(Nc4ccccc4)n3)c3ccccc23)cc1` (stereo not drawn) [Example 9, Ethyl (4-(3-(tert-butyl)-5-(3-(4-((2-(phenylamino)pyrimidin-4-yl)oxy)naphthalen-1-yl)-ureido)-1H-pyrazol-1-yl)phenyl)(methyl)phosphinate], for which the pIC50 in the assay with PBMCs (setting [1]) is 7.62; with PBMCs (setting [2]), 8.21; on GSK3α it was 5.84.
Turning to `Cc1cc(Nc2nccc(Oc3ccc(NC(=O)Nc4cc(C(C)(C)C)nn4-c4cccc(P(C)(C)=O)c4)c4ccccc34)n2)cc2cn[nH]c12` [Example 13, 1-(3-(tert-Butyl)-1-(3-(dimethylphosphoryl)phenyl)-1H-pyrazol-5-yl)-3-(4-((2-((7-methyl-1H-indazol-5-yl)amino)pyrimidin-4-yl)oxy)naphthalen-1-yl)urea], the pIC50 is 8.47 in the assay on PBMCs (setting [1]), 8.77 with PBMCs (setting [2]) and 6.68 against GSK3α.
Turning to `CC(C)(C)c1cc(NC(=O)Nc2ccc(Oc3ccnc(Nc4cccc(OCCN5CCOCC5)c4)n3)c3ccccc23)n(-c2ccc(P(C)(C)=O)cc2)n1` [Example 17, 1-(3-(tert-Butyl)-1-(4-(dimethylphosphoryl)phenyl)-1H-pyrazol-5-yl)-3-(4-((2-((3-(2-morpholinoethoxy)phenyl)amino)pyrimidin-4-yl)oxy)naphthalen-1-yl)urea], the results for the negative-log IC50 (pIC50) with PBMCs (setting [1]), in the assay on PBMCs (setting [2]) and on GSK3α were 8.27, 8.74 and 7.13, respectively.
`CC(C)(C)c1cc(NC(=O)Nc2ccc(Oc3ccnc(Nc4ccc5onc(N)c5c4)n3)c3ccccc23)n(-c2cccc(P(C)(C)=O)c2)n1` [Example 12]: the pIC50 is 8.07 in the assay on PBMCs (setting [1]), 8.74 in the assay on PBMCs (setting [2]) and 7.14 on GSK3α.
